Some results are limits rather than exact numbers.

In general, melting point refers to the temperature, or range, at which the solid turns liquid.

Consider `N#Cc1cc(-c2nc3cncnc3s2)ccc1Oc1ccccc1F`, for which the melting point lay in the range of 195 to 196 °C. Regarding `CN1C(=O)N2CCOC2(c2ccccc2)c2cc([N+](=O)[O-])ccc21` (stereo not given), the melting point was 136 °C. Take `NS(=O)(=O)Oc1ccc2ccccc2c1`: the melting point was in the range of 114 to 115 °C.

Molecule `CCOC(=O)c1cn(Cc2ccccc2)nc1OCc1cccc(OCc2nc(-c3ccco3)oc2C)c1` showed a melting point of 92 to 93 °C. The molecule `CC(C)(C)OC(=O)CN1CCN(CC(=O)OC(C)(C)C)C1=O` returned a melting point of 100 to 102 °C. Consider `O=C(Cl)N1CC(Oc2cccc(Br)c2)C1`, for which the melting point was 87 to 88 °C. Regarding `CC(C)C(=O)N1CCC(c2nc3cc(-c4ccc(C(N)=O)c(F)c4)ccc3o2)CC1`, the melting point was in the range of 193 to 196 °C. The molecule `CC(=O)Nc1[nH]c(-c2ccc(O)cc2)nc1C` registered a melting point of 277 to 279 °C. With `CC(=O)NC1Cc2ccc([N+](=O)[O-])cc2C1` (stereo not given), the melting point was in the range of 143 to 144 °C.

`Cc1nc(N2CCN(Cc3ccc(F)cc3)C2=O)sc1C(N)=O` registered a melting point of 201 to 203 °C.

In the case of `C=CCOc1cc([N+](=O)[O-])ccc1OCC1CO1` (stereo not given), the melting point was 64 °C. Molecule `CNC(=O)c1ccc(-c2ccc3nnn(Cc4ccc5ncccc5c4)c3n2)cc1` gave a melting point of 220 to 222 °C. In turn, `CCCCCCCCCC(CC)C(=O)Nc1cc(C(=O)O)ccc1C` (racemic) gave a melting point of 217 to 220 °C.

`COc1ccc(C2CCN(c3c(C)c(C)c4c(c3C)C(N3CCc5ccccc5CC3)C(C)(C)O4)CC2)cc1OC` (stereo not given) gave a melting point of 136 to 138 °C. For the molecule `CCCCc1csc2ccc3[nH]c4c(c3c12)CNCC4`, the melting point lay within 224 to 225 °C.

With `CN1c2c(Cl)cc(CC(=O)O)cc2CCC1c1ccccc1` (stereo not given), the melting point was in the range of 111 to 112 °C. `NC(Cc1coc2c(Cl)cccc12)=NO` yielded a melting point of 142 to 145 °C. In turn, `COc1cc(N2C(=O)c3ccccc3C2=O)c2nccc(C)c2c1Oc1cccc(C(F)(F)F)c1` returned a melting point of 228 to 230 °C. Consider `CC(=O)Nc1ccc([N+](=O)[O-])c2c(Br)ccc(C)c12`, for which the melting point lay in the range of 216 to 217 °C.

In turn, `COc1ccc2nc(NC(=O)C(CC3CCCC3)c3ccc(S(=O)(=O)NCc4ccccc4)cc3)sc2n1` (stereo not given) displayed a melting point of 237 to 240 °C.

In the case of `Cc1cc(-c2c(-c3ccc(F)cc3)ncn2CCCN2CCOCC2)ccn1`, the melting point is 116 to 117 °C. Molecule `CC(=O)Nc1cc(Cl)cc(Cl)c1` displayed a melting point of 182 °C.

Molecule `COc1ccc2c(c1)Sc1c(cc(OC)c(O)c1Br)N2C` showed a melting point of 154 to 155 °C. Take `COC(=O)c1ccc2c(-c3ccccc3)cc(=O)oc2c1`: the melting point was 133 to 135 °C. As to `CCOC(=O)c1c(-c2cccc([N+](=O)[O-])c2)cc(-c2ccccc2)nc1CBr`, the melting point was 125 to 128 °C. On to `O=C(O)CCCc1cc2nc(Cl)ccc2n1S(=O)(=O)c1ccc(OC(F)(F)F)cc1`, for which the melting point came to 168 °C. The molecule `CCOC(=O)Cc1ncc2c(n1)-c1ccc(Cl)cc1C(c1ccccc1F)=NC2` yielded a melting point of 98 to 103 °C.

On to `CCCC(=O)Oc1cc2c(s1)CCN(C(C(=O)C1CC1)c1ccccc1F)C2` (stereo not given), for which the melting point is 84 to 85 °C. Turning to `O=c1c2c(Cl)cc(Cl)cc2n(Cc2ccccc2)c(=O)n1Cc1cccc(Br)c1`, the melting point fell in the range of 121 to 128 °C.

Turning to `CC(C)(C)N(NC(=O)c1ccco1)C(=O)c1ccccc1`, the melting point was 160 to 162 °C. The value for `CCOC(=O)C1CC(=O)NN1c1ncc(Cl)cc1Cl` (stereo not given) was 105 to 108 °C; that for `CC1Cc2cc3c(cc2C(c2ccc([N+](=O)[O-])cc2)=NN1C(=O)C(C)(C)C)OCO3` (stereo not given) was 164 to 166 °C. Consider `COc1ccc2c(c1)c(-c1ccccc1)nc(=S)n2CC1CC1`, for which the melting point is 180 to 181 °C.

`Cc1cc(-c2cccc(C(F)(F)F)c2)nn2cnnc12` had a melting point of 181 to 183 °C. Take `O=C(Cl)c1c(-c2ccccc2)nn2c1-c1ccccc1CC2`: the melting point was 109 to 110 °C. The molecule `O=C1N(c2cc(Cl)cc(Cl)c2)C(=O)[C@]2(Cc3ccc(Br)cc3)C[C@@H](O)CN12` yielded a melting point of 88.3 °C. For the molecule `COc1cc2c(cc1OCc1ccccc1)CCN(Cc1cc(OC)c(OC)c(OC)c1)C2`, the melting point fell in the range of 144 to 145 °C. Turning to `COc1ccc(-c2cc(C)c(=O)[nH]n2)cc1`, the melting point was 265 to 267 °C. Regarding `Cc1ccc(N2C(=O)c3ccccc3C2=O)c(Cl)c1Cl`, the melting point is 109 °C. Molecule `CC(=O)Oc1cc2c(s1)C(N1CCCC1=O)CC(C)(C)O2` (stereo not given) showed a melting point of 92 to 93 °C. `CCc1cc(C=C[N+](=O)[O-])c(OC)nc1C` returned a melting point of 105 to 107 °C.

Turning to `O=C(O)C(=O)c1cn(Cc2ccccc2)c2ccc(-c3ccc(OC(F)(F)F)cc3)cc12`, the melting point lay in the range of 169 to 171 °C. To `COc1cc2c(cc1OC)C(c1ccc(SC(F)(F)F)cc1)CNCC2` (stereo not given) belongs 95 °C; to `CCOC(=O)CC(=O)Nc1ncc(Br)s1`, 165 to 166 °C; to `COC(=O)CCCC(=O)c1ccco1`, 42.5 °C.

Molecule `CC(C)(C)OC(=O)N1CCC[C@@H](Nc2nccc(-c3c(-c4cccc(C(N)=O)c4)nc4sccn34)n2)C1` yielded a melting point of 161 to 165 °C. To `COc1ccc(C(=O)Nc2ccc(Cl)c(Cl)c2)cc1NCc1cccc(F)c1` belongs 153 to 155 °C; to `CCOc1cc(C(=O)OC)nc2cc(OC)c3ncccc3c12`, 188 to 190 °C. In the case of `O=C(O)c1sc(Oc2ccc3c(c2)OCO3)c2c1CCc1cnoc1-2`, the melting point fell in the range of 226 to 228 °C. On to `NCCNc1nc2ccccc2n(-c2ccc(Cl)cc2)c1=O`, for which the melting point lay within 173 to 174 °C. As for `Cc1ccc(CNc2nc(OCC(F)(F)F)nc(Oc3cccc(C(F)(F)F)c3)n2)o1`, the melting point was in the range of 116 to 118 °C. With `Cn1ccc(C(=O)c2ccccc2)c1`, the melting point is 90 to 93 °C.

In turn, `Cc1cc(C#N)c(C)c(C(=O)Nc2ccc(F)cn2)n1` returned a melting point of 196 °C. As to `CC(C)C(=O)CCC(C)C1CCC2C3CC(O)C4CC(O)CCC4(C)C3CCC12C` (stereo not given), the melting point fell in the range of 180 to 181 °C.

With `Cc1ccc(Cc2cnc(NCCCCNc3ccc(Cl)cn3)[nH]c2=O)cn1`, the melting point was in the range of 214 to 215 °C. To `O=C(O)c1ccc(-c2ccc(Cl)cc2)cc1` belongs 191 to 192 °C; to `O=C(O)c1ccc2nc3ccccn3c(=O)c2c1`, over 310 °C; to `CC(=O)c1cccc2c1[C@@H](NC(=O)c1ccc(F)cc1)[C@H](O)C(C)(C)O2` (relative stereo), 175 °C. The value for `N#CNC(=S)Nc1cccc(Cl)c1` was 258 to 260 °C; that for `CC(C)(C)NC(=S)c1nn(-c2ccc(F)cc2F)c2c1C1CCC2C1` (stereo not given) was 148 to 150 °C. For `CN(c1cccc2cc(C3=NCC4(CCOCC4)S3)[nH]c12)S(=O)(=O)c1cccs1`, the melting point fell in the range of 189 to 191 °C. `COCc1noc(-c2ncn3c2c(=O)n(C(C)C)c2ccccc23)n1` had a melting point of 195 to 196 °C. In the case of `Cc1ccc2c(n1)N(CCCN(C(C)C)C(C)C)c1ccccc1N(C)C2=O`, the melting point lay within 118 to 119 °C.

`O=C(CCCN1CCN(c2ccc(F)cc2)CC1)NC1c2ccccc2C=Cc2ccccc21` had a melting point of 233 to 235 °C.

The molecule `COC(=O)C(C)Nc1c(C)csc1C` (stereo not given) came in with a melting point of 33 to 34 °C.

The molecule `CC(C)(C)c1ccc(/C=C/C(=O)Nc2ccc3c(c2)NCC3)cc1` registered a melting point of 153 to 167 °C. The value for `COC(=O)c1ccccc1-c1ccc(C)cc1` was 119 to 121 °C; that for `CC(C)(C)NCC(O)c1ccc(F)cc1` (stereo not given) was 117 °C. The value for `O=C(NC(c1ccccc1)c1cc2ccncc2[nH]1)c1ccncc1` (stereo not given) was 182 to 192 °C; that for `CC(=O)OCC1OC(OC(C)=O)C(O)C(OC(C)=O)C1OC(C)=O` (stereo not given) was 163 to 165 °C; that for `O=C1OC2CCC1OC2` (stereo not given) was 56 to 57 °C.

The molecule `O=C(/C=C/c1cccnc1)N1CCN(C(=O)c2cc(C(F)(F)F)cc(C(F)(F)F)c2)[C@H](Cc2c[nH]c3ccccc23)C1` registered a melting point of 86.5 to 89.5 °C. In the case of `CCOC(=O)C1=NOC(c2ccc(NC(=O)c3c(I)cccc3C(=O)NC(C)C)c(C)c2)(C(F)(F)F)C1` (stereo not given), the melting point lay within 172 to 174 °C. `CC(C)(C)OC(=O)NCc1ccccc1-c1ccc(CO)cc1` registered a melting point of 89 to 93 °C. As to `CC(=O)Nc1nc(N)nc(NC2CC2)n1`, the melting point was 190 to 195 °C.

In turn, `CC(=O)c1ccc(NCc2cc3c(cc2O)CCO3)cc1` had a melting point of 181 to 183 °C. Regarding `CCC1=NCC(c2cccc(O)c2)O1` (stereo not given), the melting point is under 84 °C. For the molecule `O=C(O)CCc1ccc([N+](=O)[O-])cc1`, the melting point lay in the range of 162 to 164 °C. `CCOC(=O)c1cnn(-c2cc(C)cc(C)c2)c1C#N`: the melting point was 83.5 to 84.5 °C. For `N#Cc1c(C(F)(F)F)cc(-c2ccc(C(F)(F)F)cc2)[nH]c1=O`, the melting point is 197 °C.

Regarding `COc1cc(CC(=O)NCCCc2ccc(C)c(C)c2)ccc1OCCN1CCNCC1`, the melting point was 92 to 94 °C.

In turn, `CC(C)(C)c1cc(CCc2ccccc2NC(=O)NCCN2CCOCC2)cc(C(C)(C)C)c1O` displayed a melting point of 166 to 167 °C. As for `COc1ccc(-c2[nH]nc3c2C(=O)c2c(NC(=O)CN4CCC(N(C)C)CC4)cccc2-3)cc1`, the melting point is over 300 °C. The molecule `Nc1nc(-c2cccc(F)c2)nc2nc(-c3ccco3)nn12` registered a melting point of over 300 °C. With `OCCON=Cc1cncc(-c2ccccc2)c1`, the melting point fell in the range of 102 to 104 °C. In turn, `COc1ccc(Nc2cc(-c3ccc(S(C)(=O)=O)cc3)nc(N)n2)cc1Cl` came in with a melting point of 241 to 244 °C.

On to `O=C(c1ccc(OCc2ccnc3ccccc23)cc1)[NH+]([O-])C1CCN(Cc2ccccc2)CC1` (stereo not given), for which the melting point is 171 to 173 °C. In the case of `CCC(C(C)=CC(CNC(=O)c1ccc2c(c1)CC(=O)N2)=NO)[N+](=O)[O-]` (stereo not given), the melting point is 111 to 114 °C. `Nc1nc(N)nc(-c2cncc(Br)c2)n1` registered a melting point of over 260 °C. The molecule `CCCc1c(C(=O)C(C)C)c2ccc(C(N)=O)cc2n1Cc1ccccc1NC(C)=O` displayed a melting point of 235 to 236 °C.

The values are drawn from a melting point compilation (Tetko et al.; mined from patent text by program, amines drawn as free bases though some values may be those of a salt).
